“And” between values parts separate entries of the source, which are not always exact repeats. Equal entries are not always repeated.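 How tested: cells in 96-well plates exposed to compound for 48 hours at five concentrations. Abbreviation: GI50, concentration required for 50% inhibition of growth.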 The source made the active and inactive calls. Cut-off read from the data, not from the text of the source: active = GI50 up to about 1.1 µM and inactive = higher.
What was measured:
Test in all cases: inhibition of tumour cell growth, NCI panel, 48 h
[1] = test system: A498
[2] = test system: ACHN
[3] = test system: CAKI-1
[4] = test system: DMS-114
[5] = test system: DMS-273
[6] = test system: EKVX
[7] = test system: HCC 2998
[8] = test system: HCT-116
[9] = test system: HL-60
[10] = test system: HT-29
[11] = test system: IGROV-1
[12] = test system: LXFL 529
[13] = test system: M19-MEL
[14] = test system: MOLT-4
[15] = test system: NCI-H226
[16] = test system: NCI-H460
[17] = test system: NCI-H522
[18] = test system: OVCAR-3
[19] = test system: OVCAR-4
[20] = test system: OVCAR-5
[21] = test system: RPMI-8226
[22] = test system: RXF 393
[23] = test system: SF-295
[24] = test system: SK-MEL-28
[25] = test system: SK-MEL-2
[26] = test system: SK-OV-3
[27] = test system: SNB-78
[28] = test system: SW-620
[29] = test system: TK-10
[30] = test system: UACC-257
[31] = test system: XF498
[32] = test system: A549
[33] = test system: CCRF-CEM
[34] = test system: COLO 205
[35] = test system: DLD-1
[36] = test system: HCT-15
[37] = test system: K562
[38] = test system: KM12
[39] = test system: LOX IMVI
[40] = test system: Malme-3M
[41] = test system: OVCAR-8
[42] = test system: SK-MEL-5
[43] = test system: SN12C
[44] = test system: SNB-75
[45] = test system: UACC-62
[46] = test system: 786-0
[47] = test system: BT-549
[48] = test system: DU-145
[49] = test system: HOP-18
[50] = test system: HOP-62
[51] = test system: HOP-92
[52] = test system: Hs-578T
[53] = test system: KM-20L2
[54] = test system: M14
[55] = test system: MCF7
[56] = test system: MDA-MB-231
[57] = test system: MDA-MB-435
[58] = test system: NCI-H23
[59] = test system: NCI/ADR-RES
[60] = test system: PC-3
[61] = test system: SF-268
[62] = test system: SF-539
[63] = test system: SNB-19
[64] = test system: SR
[65] = test system: T47D
[66] = test system: U-251
[67] = test system: UO-31

CC(=O)OCC1OC(n2c(-c3ccccc3)cc(-c3ccco3)c(C#N)c2=O)C(OC(C)=O)C(OC(C)=O)C1OC(C)=O (configuration not stated)
GI50 [1]: > 100 µM (inactive) and 68.1 µM (inactive)
GI50 [2]: 76.7 µM (inactive) and 49.7 µM (inactive)
GI50 [3]: 52.5 µM (inactive)
GI50 [4]: 28.8 µM (inactive) and 30.5 µM (inactive)
GI50 [5]: 25.8 µM (inactive) and 36.3 µM (inactive)
GI50 [6]: > 100 µM (inactive)
GI50 [7]: > 100 µM (inactive) and 52.4 µM (inactive)
GI50 [8]: 7.46 µM (inactive) and 5.86 µM (inactive)
GI50 [9]: 3.84 µM (inactive)
GI50 [10]: > 100 µM (inactive)
GI50 [11]: > 31.6 µM (inactive) and 36.8 µM (inactive)
GI50 [12]: 12.7 µM (inactive) and > 10 µM (inactive)
GI50 [13]: 54.6 µM (inactive) and 30.9 µM (inactive)
GI50 [14]: > 22.8 µM (inactive) and 14.8 µM (inactive)
GI50 [15]: > 100 µM (inactive)
GI50 [16]: 57.4 µM (inactive)
GI50 [17]: 29.5 µM (inactive) and 20.7 µM (inactive)
GI50 [18]: 33.3 µM (inactive) and > 31.6 µM (inactive)
GI50 [19]: > 56.6 µM (inactive) and 74.3 µM (inactive)
GI50 [20]: > 100 µM (inactive)
GI50 [21]: 8.38 µM (inactive)
GI50 [22]: > 32.1 µM (inactive) and 19.3 µM (inactive)
GI50 [23]: 39.9 µM (inactive) and 57.5 µM (inactive)
GI50 [24]: 22.3 µM (inactive) and 39.3 µM (inactive)
GI50 [25]: 14.6 µM (inactive) and 28.1 µM (inactive)
GI50 [26]: > 100 µM (inactive) and 98.6 µM (inactive)
GI50 [27]: 45.7 µM (inactive) and 25.9 µM (inactive)
GI50 [28]: > 31.6 µM (inactive) and 49.3 µM (inactive)
GI50 [29]: > 31.6 µM (inactive) and 27.2 µM (inactive)
GI50 [30]: > 89.1 µM (inactive) and 75.7 µM (inactive)
GI50 [31]: 16.2 µM (inactive)

CC(=O)OCC1OC(n2c(=S)n(-c3ccccc3)c(=O)c3cc(Br)cc(Br)c32)C(OC(C)=O)C(OC(C)=O)C1OC(C)=O (configuration not stated)
GI50 [1]: > 100 µM (inactive) and 61.7 µM (inactive)
GI50 [32]: 90.8 µM (inactive) and 58.6 µM (inactive)
GI50 [2]: 51.8 µM (inactive) and 87.3 µM (inactive)
GI50 [33]: > 100 µM (inactive)
GI50 [34]: > 100 µM (inactive)
GI50 [35]: > 100 µM (inactive)
GI50 [4]: 35.2 µM (inactive) and 57.8 µM (inactive)
GI50 [5]: > 100 µM (inactive) and 64.9 µM (inactive)
GI50 [6]: > 100 µM (inactive)
GI50 [7]: > 100 µM (inactive)
GI50 [8]: 65.2 µM (inactive)
GI50 [36]: 83.4 µM
GI50 [9]: 86.7 µM (inactive)
GI50 [10]: > 100 µM (inactive)
GI50 [37]: 65.3 µM (inactive)
GI50 [38]: 83 µM (inactive) and 78.5 µM (inactive)
GI50 [39]: 60 µM (inactive)
GI50 [12]: 72.1 µM (inactive) and 45.2 µM (inactive)
GI50 [13]: 65.6 µM (inactive)
GI50 [40]: > 100 µM (inactive)
GI50 [15]: 61.7 µM (inactive)
GI50 [16]: > 100 µM (inactive) and 81.8 µM (inactive)
GI50 [20]: > 100 µM (inactive)
GI50 [41]: > 100 µM (inactive) and 92.9 µM (inactive)
GI50 [24]: > 100 µM (inactive)
GI50 [25]: > 100 µM (inactive)
GI50 [42]: 91.6 µM (inactive)
GI50 [43]: > 100 µM (inactive) and 81.8 µM (inactive)
GI50 [44]: 33.5 µM (inactive) and 22.6 µM (inactive)
GI50 [27]: 99.3 µM (inactive) and 54.8 µM (inactive)
GI50 [28]: > 100 µM (inactive)
GI50 [45]: 59.2 µM (inactive) and 54.3 µM (inactive)

CCOc1ccc2c(ccc(/C=C/c3cc(C)c4cccnc4c3O)[n+]2C)c1
GI50 [46]: 0.53 µM (active)
GI50 [1]: 1.67 µM (inactive)
GI50 [32]: 1.33 µM (inactive)
GI50 [2]: 1.4 µM (inactive)
GI50 [47]: 1.52 µM (inactive)
GI50 [3]: 4.29 µM (inactive)
GI50 [33]: 0.0673 µM (active)
GI50 [34]: 0.624 µM (active)
GI50 [35]: 1.28 µM (inactive)
GI50 [4]: 301 nM (active)
GI50 [48]: 3.62 µM (inactive)
GI50 [6]: 0.925 µM (active)
GI50 [7]: 0.746 µM (active)
GI50 [8]: 0.317 µM (active)
GI50 [36]: 3.66 µM
GI50 [9]: 0.141 µM (active)
GI50 [49]: 2.8 µM (inactive)
GI50 [50]: 1.14 µM (inactive)
GI50 [51]: 0.881 µM (active)
GI50 [10]: 0.378 µM (active)
GI50 [52]: 6.82 µM (inactive)
GI50 [11]: 675 nM (active)
GI50 [37]: 0.495 µM (active)
GI50 [53]: 0.527 µM (active)
GI50 [38]: 908 nM (active)
GI50 [39]: 0.356 µM (active)
GI50 [12]: 384 nM (active)
GI50 [54]: 0.836 µM (active)
GI50 [13]: 2.99 µM (inactive)
GI50 [55]: 0.115 µM (active)
GI50 [56]: 0.157 µM (active)
GI50 [57]: 0.929 µM (active)
GI50 [14]: 158 nM (active)
GI50 [40]: 1.94 µM (inactive)
GI50 [15]: 0.859 µM (active)
GI50 [58]: 1.08 µM (active)
GI50 [16]: 0.281 µM (active)
GI50 [17]: 583 nM (active)
GI50 [59]: 41.6 µM (inactive)
GI50 [18]: 129 nM (active)
GI50 [19]: 1.7 µM (inactive)
GI50 [20]: 1.24 µM (inactive)
GI50 [41]: 301 nM (active)
GI50 [60]: 0.773 µM (active)
GI50 [21]: 0.818 µM (active)
GI50 [22]: 3.71 µM (inactive)
GI50 [61]: 0.736 µM (active)
GI50 [23]: 1.24 µM (inactive)
GI50 [62]: 0.485 µM (active)
GI50 [24]: 0.792 µM (active)
GI50 [25]: 0.498 µM (active)
GI50 [42]: 0.627 µM (active)
GI50 [26]: 1.8 µM (inactive)
GI50 [43]: 274 nM (active)
GI50 [63]: 0.594 µM (active)
GI50 [44]: 2.29 µM (inactive)
GI50 [64]: 0.153 µM (active)
GI50 [28]: 0.459 µM (active)
GI50 [65]: 0.54 µM (active)
GI50 [29]: 575 nM (active)
GI50 [66]: 0.18 µM (active)
GI50 [30]: 933 nM (active)
GI50 [45]: 1.53 µM (inactive)
GI50 [67]: 8.09 µM (inactive)

— ChEMBL document CHEMBL1201862, “PubChem BioAssay data set” (2004)
